How the values were obtained:
Assay type in all cases: ADME, organism-based
[1] = Drug level in healthy human urine at 400 mg single dose; conditions: read-out: Drug uptake
[2] = Drug level in healthy human feces at 400 mg single dose; conditions: faeces, read-out: Drug uptake
[3] = AUC (0 to last) in Shigella flexneri challenged human at […], po administered every 8 hrs for three days measured after last dose; design: time 0 - last, route oral; conditions: plasma
[4] = Oral bioavailability in human at 200 mg three times a day for 3 days; conditions: in vivo
[5] = Tmax in Shigella flexneri challenged human at […], po administered every 8 hrs for three days measured after last dose; design: route oral; conditions: in vivo
[6] = Tmax in Shigella flexneri challenged human at […], po administered every 8 hrs for three days measured after third dose; design: route oral; conditions: in vivo
[7] = Cmax in Shigella flexneri challenged human at […], po administered every 8 hrs for three days measured after last dose; design: route oral; conditions: in vivo
[8] = Cmax in Shigella flexneri challenged human at […], po administered every 8 hrs for three days measured after third dose; design: route oral; conditions: in vivo
[9] = AUC (0 to last) in Shigella flexneri challenged human at […], po administered every 8 hrs for three days measured after third dose; design: route oral, time 0 - last; conditions: plasma

Q: For CO[C@H]1/C=C/O[C@@]2(C)Oc3c(C)c(O)c4c(O)c(c5c(nc6cc(C)ccn65)c4c3C2=O)NC(=O)/C(C)=C\C=C\[C@H](C)[C@H](O)[C@@H](C)[C@@H](O)[C@@H](C)[C@H](OC(C)=O)[C@@H]1C [RIFAXIMIN], which dose excreted [1] is on record?
A: 0.32%

Q: And the dose excreted [2]?
A: 97%

Q: And the AUC(0-t) at 8 h [3]?
A: 7.83 ng·h/mL

Q: What about the bioavailability [4] of the same compound?
A: < 0.4%

Q: And the Tmax [5]?
A: 2.11 h

Q: And the Tmax [6]?
A: 2.77 h

Q: And the Cmax [7]?
A: 1.23 ng/mL

Q: And the Cmax [8]?
A: 1.63 ng/mL

Q: What about the AUC(0-t) at 8 h [9] of the same compound?
A: 6.95 ng·h/mL

Source: ChEMBL document CHEMBL1255246, “Systemic pharmacokinetics of rifaximin in volunteers with shigellosis” (Antimicrob Agents Chemother, 2008)
